Test results taken from patent US6551591B1, “Antibiotics from microbispora” (priority 2001, dated 2003).
≈ marks a conversion by molar mass, not a printed value. Where two headings read alike, the source gives them in different places.

Legend:
[1] = test system: MRSA (methicillin resistance Staphylococcus aureus) strains; test: MIC50/MIC90 against a collection of genotypically characterized S. aureus isolates; assay type: cell-based
Procedure: (§1) The antibacterial activity of MF-BA-1768α1 and MF-BA-1768β1 were determined against a spectrum of bacterial strains using a broth microdilution assay performed as recommended by the NCCLS (NCCLS Document M7-A4, Vol 17 No.2). With the exception of Streptococci spp. and H. influenzae, the assay was performed in Cation Adjusted Mueller-Hinton Broth (CAMHB). For the Streptococci spp., CAMHB+2-5% Laked Horse Blood (REMEL) was used. For H. influenzae, Haemophilus Test Medium (REMEL) containing 2% Fildes Enrichment was used. The final bacterial inoculum was 5×10^5 CFU/ml in a final assay volume of 100 μl. Microtiter plates containing the test samples and the respective bacterial inoculum were incubated for 24 hours at 35° C. with the exception of E. coli plates, which were incubated for 20 hours at 35° C. Upon completion of incubation, the plates were read using a microtiter plate reader (Molecular Devices) at 650 nm as well as by visual observation using a microtiter plate reading mirror. […]
(§2) The antibacterial activity of MF-BA-1768β1 was further evaluated side-by-side with 9 reference antibiotics against a collection of genotypically well-characterized isolates of Staphylococcus aureus. These included 64 MRSA (methicillin resistance Staphylococcus aureus) strains and 19 MSSA (methicillin sensitive Staphylococcus aureus) strains representing 57 staphylococcal protein A genotypes and 22 coagulase A genotypes. The most common protein A genotypes found in the USA were represented by more than one isolate.

[2] = test system: MSSA (methicillin sensitive Staphylococcus aureus) strains; test: as above; assay type: cell-based
Procedure: as §1, §2

[3] = Staphylococcus aureus, MRSA (64 strains), read-out: MIC50
[4] = Staphylococcus aureus, MRSA (64 strains), read-out: MIC90
[5] = Staphylococcus aureus, MSSA (19 strains), read-out: MIC50
[6] = Staphylococcus aureus, MSSA (19 strains), read-out: MIC90

| Compound | MIC50 [1, 3] [µg/mL] | MIC90 [1, 4] [µg/mL] | MIC50 [2, 5] [µg/mL] | MIC90 [2, 6] [µg/mL] | further results |
| --- | --- | --- | --- | --- | --- |
| CO/N=C(\C(=O)N[C@@H]1C(=O)N2C(C(=O)O)=C(COC(C)=O)CS[C@H]12)c1csc(N)n1 [Cefotaxime] | 512 (≈ 1120 µM) | > 512 | 2 (≈ 4.39 µM) | 256 (≈ 562 µM) | – |
| C[C@@H](O)[C@H]1C(=O)N2C(C(=O)O)=C(SCCN=CN)C[C@H]12 [Imipenem] | 8 (≈ 26.7 µM) | 128 (≈ 428 µM) | ≤ 0.5 | 4 (≈ 13.4 µM) | – |
| CCOc1ccc2ccccc2c1C(=O)N[C@@H]1C(=O)N2[C@@H]1SC(C)(C)[C@@H]2C(=O)O [Nafcillin] | 64 (≈ 154 µM) | 256 (≈ 618 µM) | ≤ 1 | 16 (≈ 38.6 µM) | – |
| CC1COc2c(N3CCN(C)CC3)c(F)cc3c(=O)c(C(=O)O)cn1c23 (stereo not drawn) [Ofloxacin] | 0.5 (≈ 1.38 µM) | 32 (≈ 88.6 µM) | 0.5 (≈ 1.38 µM) | 32 (≈ 88.6 µM) | – |
| Cc1onc(-c2ccccc2)c1C(=O)N[C@@H]1C(=O)N2[C@@H]1SC(C)(C)[C@@H]2C(=O)O [Oxacillin] | 128 (≈ 319 µM) | 512 (≈ 1280 µM) | ≤ 1 | 64 (≈ 159 µM) | – |
| CO[C@H]1/C=C/O[C@@]2(C)Oc3c(C)c(O)c4c(O)c(c(/C=N/N5CCN(C)CC5)c(O)c4c3C2=O)NC(=O)/C(C)=C\C=C\[C@H](C)[C@H](O)[C@@H](C)[C@@H](O)[C@@H](C)[C@H](OC(C)=O)[C@@H]1C [Rifampicin] | ≤ 0.0625 | > 32 | ≤ 0.0625 | ≤ 0.0625 | – |
| CN(C)[C@@H]1C(O)=C(C(N)=O)C(=O)[C@@]2(O)C(O)=C3C(=O)c4c(O)cccc4[C@@](C)(O)[C@H]3C[C@@H]12 [Tetracycline] | 0.25 (≈ 0.563 µM) | > 32 | 0.25 (≈ 0.563 µM) | 32 (≈ 72 µM) | – |
| CN[C@H](CC(C)C)C(=O)N[C@H]1C(=O)N[C@@H](CC(N)=O)C(=O)N[C@H]2C(=O)N[C@H]3C(=O)N[C@H](C(=O)N[C@H](C(=O)O)c4cc(O)cc(O)c4-c4cc3ccc4O)[C@H](O)c3ccc(c(Cl)c3)Oc3cc2cc(c3O[C@@H]2O[C@H](CO)[C@@H](O)[C@H](O)[C@H]2O[C@H]2C[C@](C)(N)[C@H](O)[C@H](C)O2)Oc2ccc(cc2Cl)[C@H]1O [Vancomycin] | – | – | – | – | MIC50 ([1]; Staphylococcus aureus, MRSA): 0.5 µg/mL (≈ 0.345 µM); MIC90 ([1]; Staphylococcus aureus, MRSA): 1 µg/mL (≈ 0.69 µM); MIC50 ([2]; Staphylococcus aureus, MSSA): 0.5 µg/mL (≈ 0.345 µM); MIC90 ([2]; Staphylococcus aureus, MSSA): 1 µg/mL (≈ 0.69 µM) |
| Gentamicin | – | – | – | – | MIC50 ([1]; MRSA (64 strains)): 1 µg/mL; MIC90 ([1]; MRSA (64 strains)): >32 µg/mL; MIC50 ([2]; MSSA (19 strains)): 0.5 µg/mL; MIC90 ([2]; MSSA (19 strains)): 32 µg/mL |
